From the supplement of paper PMC12463676, “Small-molecule dissolution of stress granules by redox modulation benefits ALS models” (Nature Chemical Biology, 2025)

Experiments:
lipoamide = compound: NC(=O)CCCCC1CCSS1 [lipoamide]; assay: thermal stability z-score vs DMSO; higher = more thermally stabilized by treatment; settings: HeLa, lipoamide concentration 100 µM
Procedure: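 Cellular thermal proteome profiling in HeLa cells. Cells were treated with 100 µM lipoamide for 1 h, with or without 1 mM arsenate for a further 1 h, then heated to ten temperatures (37-66.3 °C), and soluble protein was quantified by TMT mass spectrometry relative to 0.1% DMSO controls. The thermal stability score (sum of log2 fold changes minus the abundance score) was transformed to a z-score; mean of n = 3 experiments.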

potassium arsenate = compound: O=[As]([O-])(O)O.[K+] [potassium arsenate]; assay: as above; settings: HeLa; arsenate concentration 1 mM
Procedure: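 Cellular thermal proteome profiling in HeLa cells treated with 1 mM arsenate for 1 h (DMSO pretreatment), heated to ten temperatures (37-66.3 °C). Soluble protein was quantified by TMT mass spectrometry relative to DMSO controls; the thermal stability score was transformed to a z-score; mean of n = 3 experiments.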

[1] = arsenate co-treatment: 1 mM arsenate 1 h
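Note: each temperature applied for 3 min, abundance score taken as mean log2 fold change at the two lowest temperatures, z-score obtained by mean subtraction and division by SD.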

UniProt Q96CN7, sequence (Q96CN7 whole entry): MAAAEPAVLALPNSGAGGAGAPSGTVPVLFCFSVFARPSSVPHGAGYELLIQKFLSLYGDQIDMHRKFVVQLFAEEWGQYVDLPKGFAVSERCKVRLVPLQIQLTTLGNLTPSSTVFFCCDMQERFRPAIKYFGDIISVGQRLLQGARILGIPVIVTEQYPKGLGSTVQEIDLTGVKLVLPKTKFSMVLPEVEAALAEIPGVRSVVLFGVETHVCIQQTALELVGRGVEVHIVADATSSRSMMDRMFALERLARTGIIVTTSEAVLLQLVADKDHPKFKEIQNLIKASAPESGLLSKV
UniProt Q8TEX9, sequence (Q8TEX9 whole entry): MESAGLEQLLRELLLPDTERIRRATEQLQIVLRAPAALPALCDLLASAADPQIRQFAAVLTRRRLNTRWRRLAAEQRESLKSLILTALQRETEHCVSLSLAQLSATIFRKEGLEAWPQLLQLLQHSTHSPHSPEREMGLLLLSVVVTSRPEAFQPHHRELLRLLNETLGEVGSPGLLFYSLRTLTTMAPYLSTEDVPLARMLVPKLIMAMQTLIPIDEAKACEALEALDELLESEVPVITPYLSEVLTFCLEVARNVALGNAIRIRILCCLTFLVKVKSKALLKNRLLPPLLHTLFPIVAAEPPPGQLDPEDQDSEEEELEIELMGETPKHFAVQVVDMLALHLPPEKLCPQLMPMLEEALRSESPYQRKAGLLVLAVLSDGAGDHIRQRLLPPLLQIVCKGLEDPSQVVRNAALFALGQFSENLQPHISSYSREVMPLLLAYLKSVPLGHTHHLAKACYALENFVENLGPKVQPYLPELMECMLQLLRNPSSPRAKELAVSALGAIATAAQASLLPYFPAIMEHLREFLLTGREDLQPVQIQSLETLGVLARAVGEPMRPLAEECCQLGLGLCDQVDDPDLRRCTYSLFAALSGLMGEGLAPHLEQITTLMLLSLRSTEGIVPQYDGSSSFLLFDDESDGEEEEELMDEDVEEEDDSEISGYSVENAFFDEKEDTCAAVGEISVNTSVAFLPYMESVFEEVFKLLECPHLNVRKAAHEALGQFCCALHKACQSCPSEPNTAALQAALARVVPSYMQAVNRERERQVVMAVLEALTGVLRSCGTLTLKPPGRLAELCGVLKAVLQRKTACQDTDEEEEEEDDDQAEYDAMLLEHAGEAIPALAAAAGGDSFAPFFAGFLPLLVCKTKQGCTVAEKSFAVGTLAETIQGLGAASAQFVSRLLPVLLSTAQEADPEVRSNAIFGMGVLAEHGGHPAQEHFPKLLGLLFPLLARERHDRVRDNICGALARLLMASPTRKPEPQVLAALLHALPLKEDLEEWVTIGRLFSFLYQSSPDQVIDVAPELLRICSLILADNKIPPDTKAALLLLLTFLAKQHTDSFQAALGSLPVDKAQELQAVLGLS
UniProt P49585, sequence (P49585 whole entry): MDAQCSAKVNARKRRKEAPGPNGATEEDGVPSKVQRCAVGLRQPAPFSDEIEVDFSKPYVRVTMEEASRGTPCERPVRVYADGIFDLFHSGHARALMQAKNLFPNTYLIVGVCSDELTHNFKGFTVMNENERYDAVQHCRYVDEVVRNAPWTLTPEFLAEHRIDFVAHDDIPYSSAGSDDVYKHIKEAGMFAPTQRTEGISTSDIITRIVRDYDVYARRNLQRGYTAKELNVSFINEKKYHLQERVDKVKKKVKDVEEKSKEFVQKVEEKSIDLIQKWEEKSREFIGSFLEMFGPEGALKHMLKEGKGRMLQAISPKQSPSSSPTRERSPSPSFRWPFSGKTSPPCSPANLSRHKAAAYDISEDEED
UniProt Q5VV42, sequence (Q5VV42 whole entry): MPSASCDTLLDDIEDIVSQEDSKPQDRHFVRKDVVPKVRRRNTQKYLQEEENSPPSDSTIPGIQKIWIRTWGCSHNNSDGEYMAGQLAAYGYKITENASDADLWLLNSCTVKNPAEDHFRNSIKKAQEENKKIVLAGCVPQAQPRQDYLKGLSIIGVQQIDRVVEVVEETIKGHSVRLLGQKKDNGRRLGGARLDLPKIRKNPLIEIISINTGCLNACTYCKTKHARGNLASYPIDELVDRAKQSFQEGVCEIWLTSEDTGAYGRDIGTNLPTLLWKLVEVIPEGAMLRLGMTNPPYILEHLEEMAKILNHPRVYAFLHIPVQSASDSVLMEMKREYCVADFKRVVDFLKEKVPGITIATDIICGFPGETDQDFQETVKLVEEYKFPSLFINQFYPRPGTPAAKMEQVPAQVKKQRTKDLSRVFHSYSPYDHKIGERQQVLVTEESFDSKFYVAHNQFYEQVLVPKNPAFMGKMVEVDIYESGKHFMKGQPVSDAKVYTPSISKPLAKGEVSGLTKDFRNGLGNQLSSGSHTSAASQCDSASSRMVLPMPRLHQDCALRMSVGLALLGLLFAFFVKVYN
UniProt O43432, sequence (O43432 whole entry): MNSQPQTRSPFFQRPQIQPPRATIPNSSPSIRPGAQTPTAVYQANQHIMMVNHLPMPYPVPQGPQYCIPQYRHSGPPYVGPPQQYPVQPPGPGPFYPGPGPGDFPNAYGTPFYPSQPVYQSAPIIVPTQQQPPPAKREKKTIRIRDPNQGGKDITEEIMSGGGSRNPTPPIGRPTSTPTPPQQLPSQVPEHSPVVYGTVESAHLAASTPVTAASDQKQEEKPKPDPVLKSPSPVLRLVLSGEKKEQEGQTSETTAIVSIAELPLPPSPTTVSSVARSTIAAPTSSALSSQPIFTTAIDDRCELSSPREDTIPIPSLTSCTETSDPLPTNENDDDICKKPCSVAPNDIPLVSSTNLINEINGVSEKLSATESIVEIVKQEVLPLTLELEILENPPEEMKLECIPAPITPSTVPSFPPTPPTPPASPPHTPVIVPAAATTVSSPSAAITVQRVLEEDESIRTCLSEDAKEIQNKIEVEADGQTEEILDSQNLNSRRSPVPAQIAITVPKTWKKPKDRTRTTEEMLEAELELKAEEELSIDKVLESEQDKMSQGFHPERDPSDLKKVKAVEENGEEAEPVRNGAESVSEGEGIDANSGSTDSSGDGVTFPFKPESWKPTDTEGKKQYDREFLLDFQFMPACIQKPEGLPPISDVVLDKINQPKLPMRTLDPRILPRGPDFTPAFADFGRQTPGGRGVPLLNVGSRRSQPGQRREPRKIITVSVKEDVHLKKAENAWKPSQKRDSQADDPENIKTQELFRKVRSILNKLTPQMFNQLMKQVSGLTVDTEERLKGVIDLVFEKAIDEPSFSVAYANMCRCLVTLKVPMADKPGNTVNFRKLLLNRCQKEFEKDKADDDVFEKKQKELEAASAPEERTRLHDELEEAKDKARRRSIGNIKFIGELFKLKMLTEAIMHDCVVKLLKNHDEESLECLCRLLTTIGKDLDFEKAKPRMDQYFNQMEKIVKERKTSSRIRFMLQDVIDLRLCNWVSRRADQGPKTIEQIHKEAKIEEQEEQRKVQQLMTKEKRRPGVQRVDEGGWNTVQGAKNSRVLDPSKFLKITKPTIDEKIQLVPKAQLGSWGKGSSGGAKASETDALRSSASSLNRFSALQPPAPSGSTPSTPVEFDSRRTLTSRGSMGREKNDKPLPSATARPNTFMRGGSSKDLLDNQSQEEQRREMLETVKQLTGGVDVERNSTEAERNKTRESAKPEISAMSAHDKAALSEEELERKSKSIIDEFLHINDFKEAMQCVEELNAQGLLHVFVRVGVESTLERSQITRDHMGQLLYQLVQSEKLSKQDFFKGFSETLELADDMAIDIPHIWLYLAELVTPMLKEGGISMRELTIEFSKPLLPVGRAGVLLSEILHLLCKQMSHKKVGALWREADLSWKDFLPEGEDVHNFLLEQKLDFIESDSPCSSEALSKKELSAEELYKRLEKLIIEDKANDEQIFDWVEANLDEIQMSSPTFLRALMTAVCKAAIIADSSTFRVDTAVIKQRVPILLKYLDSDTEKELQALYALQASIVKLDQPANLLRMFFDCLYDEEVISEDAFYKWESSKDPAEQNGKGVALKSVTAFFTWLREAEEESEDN
UniProt Q12974, sequence (Q12974 whole entry): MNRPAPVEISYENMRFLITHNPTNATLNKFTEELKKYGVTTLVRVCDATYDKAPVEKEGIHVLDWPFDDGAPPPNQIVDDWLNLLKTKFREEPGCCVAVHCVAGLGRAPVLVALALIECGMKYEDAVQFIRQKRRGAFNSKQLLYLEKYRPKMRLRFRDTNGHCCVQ
UniProt Q9NXW9, sequence (Q9NXW9 whole entry): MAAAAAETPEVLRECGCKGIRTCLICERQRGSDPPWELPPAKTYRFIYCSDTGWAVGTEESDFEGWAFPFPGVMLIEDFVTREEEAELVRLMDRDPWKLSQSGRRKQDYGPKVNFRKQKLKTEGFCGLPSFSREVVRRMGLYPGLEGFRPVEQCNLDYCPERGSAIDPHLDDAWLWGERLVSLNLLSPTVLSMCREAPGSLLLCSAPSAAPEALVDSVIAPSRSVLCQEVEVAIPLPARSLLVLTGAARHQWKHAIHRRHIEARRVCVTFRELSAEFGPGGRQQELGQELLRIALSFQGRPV
UniProt P54136, sequence (P54136 whole entry): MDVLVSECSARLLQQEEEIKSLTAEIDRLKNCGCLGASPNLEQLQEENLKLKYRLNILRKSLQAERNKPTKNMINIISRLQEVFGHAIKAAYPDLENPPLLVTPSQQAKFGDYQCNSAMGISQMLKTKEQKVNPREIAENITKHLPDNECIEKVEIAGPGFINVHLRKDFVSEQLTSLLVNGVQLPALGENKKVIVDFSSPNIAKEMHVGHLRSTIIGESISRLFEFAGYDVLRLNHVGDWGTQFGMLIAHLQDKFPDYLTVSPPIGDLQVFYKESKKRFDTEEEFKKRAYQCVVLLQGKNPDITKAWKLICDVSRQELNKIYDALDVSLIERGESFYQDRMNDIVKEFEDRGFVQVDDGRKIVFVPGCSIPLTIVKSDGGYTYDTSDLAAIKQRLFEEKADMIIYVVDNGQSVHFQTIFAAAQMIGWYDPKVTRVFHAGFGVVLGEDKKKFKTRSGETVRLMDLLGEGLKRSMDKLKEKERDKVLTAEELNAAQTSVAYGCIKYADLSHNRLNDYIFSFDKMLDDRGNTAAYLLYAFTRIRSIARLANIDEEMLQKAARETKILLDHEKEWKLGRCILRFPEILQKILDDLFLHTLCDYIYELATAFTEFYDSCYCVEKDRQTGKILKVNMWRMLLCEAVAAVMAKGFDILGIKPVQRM

| Target | thermal stability z-score (lipoamide; [1]) | thermal stability z-score (lipoamide; arsenate co-treatment: none) | thermal stability z-score (potassium arsenate) |
| --- | --- | --- | --- |
| ABHD17B (UniProt Q5VST6) | -0.119 | 0.135 | -0.595 |
| ALKBH4 (UniProt Q9NXW9) | 0.0364 | 0.0782 | -0.163 |
| RAB34 | 0.732 | 0.783 | -0.0345 |
| KCNAB2 (UniProt Q13303) | 0.221 | 0.281 | 0.237 |
| CHMP2A (UniProt O43633) | -0.041 | 0.185 | 0.392 |
| NSMCE2 (UniProt Q96MF7) | 0.278 | 0.339 | 0.541 |
| EIF4G3 (UniProt O43432) | -0.341 | 0.15 | 0.0581 |
| STIM1 (UniProt Q13586) | -1.28 | -1.03 | 0.0811 |
| ISOC1 (UniProt Q96CN7) | 1.2 | 1.14 | 8.79 |
| PFDN5 (UniProt Q99471) | 1.81 | 1.27 | 1.22 |
| RALY (UniProt Q9UKM9) | 0.0855 | -0.0305 | 0.00385 |
| GNL3 (UniProt Q9BVP2) | -0.0335 | 0.0515 | -0.437 |
| LAMTOR3 (UniProt Q9UHA4) | 1.21 | 0.41 | -0.713 |
| GANAB (UniProt Q14697) | -3.91 | -3.13 | 0.696 |
| ALG3 (UniProt Q92685) | -0.0793 | -0.236 | 0.141 |
| PTP4A2 (UniProt Q12974) | 1.78 | 1.15 | 0.861 |
| GRN (UniProt P28799) | 0.151 | -0.477 | 0.505 |
| PCYT1A (UniProt P49585) | 0.0432 | 0.294 | 1.78 |
| IPO4 (UniProt Q8TEX9) | -0.55 | -0.394 | 0.0408 |
| ASPH (UniProt Q12797) | -2.27 | -2.04 | 0.014 |
| TONSL (UniProt Q96HA7) | -0.0593 | 0.0162 | -0.339 |
| LGALS3BP (UniProt Q08380) | -2.58 | -2.13 | 0.946 |
| TNFRSF10B (UniProt O14763) | -0.753 | -0.414 | 0.582 |
| METTL1 (UniProt Q9UBP6) | 0.351 | 0.439 | 0.207 |
| S100P (UniProt P25815) | 0.367 | -0.088 | 0.0845 |
| RMDN1 (UniProt Q96DB5) | 0.0143 | -0.0301 | 0.171 |
| PLD3 (UniProt Q8IV08) | 0.32 | 0.424 | 0.817 |
| C12ORF10 (UniProt Q9HB07) | -0.0259 | -1.16 | 0.0961 |

| Target | thermal stability z-score (lipoamide; [1]) | thermal stability z-score (lipoamide; arsenate co-treatment: none) | thermal stability z-score (potassium arsenate) |
| --- | --- | --- | --- |
| MVD (UniProt P53602) | 0.0441 | -0.0153 | -0.0067 |
| FUBP1 (UniProt Q96AE4) | 0.139 | 0.157 | 0.0234 |
| CNBP (UniProt P62633) | 0.317 | 0.142 | -0.088 |
| MRPS18B (UniProt Q9Y676) | 0.319 | 0.013 | 0.102 |
| NPTX1 (UniProt Q15818) | -3.62 | -3.29 | 0.869 |
| ARHGEF18 (UniProt Q6ZSZ5) | -0.0633 | -0.00829 | -0.0508 |
| ZMYM4 (UniProt Q5VZL5) | -0.347 | 0.0509 | -0.646 |
| ATG101 (UniProt Q9BSB4) | -0.67 | -1.42 | 0.678 |
| FAM210A (UniProt Q96ND0) | -0.412 | -0.508 | -0.189 |
| TTC17 (UniProt Q96AE7) | -0.85 | -0.317 | 0.453 |
| JMJD4 (UniProt Q9H9V9) | 0.073 | 0.027 | 0.0203 |
| LRRC45 (UniProt Q96CN5) | -0.00638 | 0.0708 | 0.0892 |
| BRD4 (UniProt O60885) | 0.496 | 0.462 | -0.724 |
| GDI1 (UniProt P31150) | 0.00835 | -0.013 | -0.353 |
| ATP6V1H (UniProt Q9UI12) | 0.0391 | -0.146 | -0.0897 |
| RARS (UniProt P54136) | -0.341 | -0.305 | 0.39 |
| ASAP2 (UniProt O43150) | -0.641 | -0.527 | -0.394 |
| PLIN4 (UniProt Q96Q06) | 0.188 | 0.324 | 0.741 |
| PPL (UniProt O60437) | -0.117 | -0.141 | 0.125 |
| NME6 (UniProt O75414) | 0.102 | 0.493 | 0.083 |
| ANAPC2 (UniProt Q9UJX6) | -0.312 | -0.0871 | 0.093 |
| NF2 (UniProt P35240) | 0.402 | 0.235 | -0.309 |
| RNF5 (UniProt Q99942) | -0.0839 | 0.142 | -0.145 |
| DCTN4 (UniProt Q9UJW0) | -0.368 | -0.0931 | -0.11 |
| NEMP1 (UniProt O14524) | -0.805 | -0.823 | 0.154 |
| ABLIM1 (UniProt O14639) | 0.77 | 1.47 | -1.82 |
| CDKAL1 (UniProt Q5VV42) | 1.09 | 0.835 | -0.903 |
